Measured values as given in BigSolDB 2.1.

Structure (SMILES): COC(=O)Nc1nc2ccc(C(=O)c3ccc(F)cc3)cc2[nH]1
- solubility (mole fraction) (in 1,4-dioxane, 288.15 K): 8.29e-05
- solubility (mole fraction) (in 1,4-dioxane, 293.15 K): 9.83e-05
- solubility (mole fraction) (in 1,4-dioxane, 298.15 K): 0.00012
- solubility (mole fraction) (in 1,4-dioxane, 303.15 K): 0.00014
- solubility (mole fraction) (in 1,4-dioxane, 308.15 K): 0.000168
- solubility (mole fraction) (in 1,4-dioxane, 313.15 K): 0.000195
- solubility (mole fraction) (in 1,4-dioxane, 318.15 K): 0.000229
- solubility (mole fraction) (in 1,4-dioxane, 323.15 K): 0.000266
- solubility (mole fraction) (in 1,4-dioxane, 328.15 K): 0.000308
- solubility (mole fraction) (in 1,4-dioxane, 333.15 K): 0.000357
- solubility (mole fraction) (in 2-butanone, 283.15 K): 0.000232
- solubility (mole fraction) (in 2-butanone, 288.15 K): 0.000305
- solubility (mole fraction) (in 2-butanone, 293.15 K): 0.000401
- solubility (mole fraction) (in 2-butanone, 298.15 K): 0.000516
- solubility (mole fraction) (in 2-butanone, 303.15 K): 0.000682
- solubility (mole fraction) (in 2-butanone, 308.15 K): 0.000837
- solubility (mole fraction) (in 2-butanone, 313.15 K): 0.00104
- solubility (mole fraction) (in 2-butanone, 318.15 K): 0.00132
- solubility (mole fraction) (in 2-butanone, 323.15 K): 0.0017
- solubility (mole fraction) (in 2-butanone, 328.15 K): 0.00204
- solubility (mole fraction) (in 2-butanone, 333.15 K): 0.00248
- solubility (mole fraction) (in DMF, 283.15 K): 0.000572
- solubility (mole fraction) (in DMF, 288.15 K): 0.000708
- solubility (mole fraction) (in DMF, 293.15 K): 0.000821
- solubility (mole fraction) (in DMF, 298.15 K): 0.00098
- solubility (mole fraction) (in DMF, 303.15 K): 0.00116
- solubility (mole fraction) (in DMF, 308.15 K): 0.00138
- solubility (mole fraction) (in DMF, 313.15 K): 0.00162
- solubility (mole fraction) (in DMF, 318.15 K): 0.00188
- solubility (mole fraction) (in DMF, 323.15 K): 0.0022
- solubility (mole fraction) (in DMF, 328.15 K): 0.00259
- solubility (mole fraction) (in DMF, 333.15 K): 0.00309
- solubility (mole fraction) (in DMSO, 293.15 K): 0.00191
- solubility (mole fraction) (in DMSO, 298.15 K): 0.00221
- solubility (mole fraction) (in DMSO, 303.15 K): 0.00261
- solubility (mole fraction) (in DMSO, 308.15 K): 0.00303
- solubility (mole fraction) (in DMSO, 313.15 K): 0.00358
- solubility (mole fraction) (in DMSO, 318.15 K): 0.00419
- solubility (mole fraction) (in DMSO, 323.15 K): 0.00481
- solubility (mole fraction) (in DMSO, 328.15 K): 0.00548
- solubility (mole fraction) (in DMSO, 333.15 K): 0.00627
- solubility (mole fraction) (in NMP, 283.15 K): 0.00078
- solubility (mole fraction) (in NMP, 288.15 K): 0.000918
- solubility (mole fraction) (in NMP, 293.15 K): 0.00103
- solubility (mole fraction) (in NMP, 298.15 K): 0.00122
- solubility (mole fraction) (in NMP, 303.15 K): 0.00142
- solubility (mole fraction) (in NMP, 308.15 K): 0.00162
- solubility (mole fraction) (in NMP, 313.15 K): 0.00188
- solubility (mole fraction) (in NMP, 318.15 K): 0.00215
- solubility (mole fraction) (in NMP, 323.15 K): 0.00252
- solubility (mole fraction) (in NMP, 328.15 K): 0.00308
- solubility (mole fraction) (in NMP, 333.15 K): 0.00373
- solubility (mole fraction) (in ethanol, 283.15 K): 1.03e-06
- solubility (mole fraction) (in ethanol, 288.15 K): 1.56e-06
- solubility (mole fraction) (in ethanol, 293.15 K): 2.41e-06
- solubility (mole fraction) (in ethanol, 298.15 K): 3.74e-06
- solubility (mole fraction) (in ethanol, 303.15 K): 5.44e-06
- solubility (mole fraction) (in ethanol, 308.15 K): 7.73e-06
- solubility (mole fraction) (in ethanol, 313.15 K): 1.01e-05
- solubility (mole fraction) (in ethanol, 318.15 K): 1.41e-05
- solubility (mole fraction) (in ethanol, 323.15 K): 1.94e-05
- solubility (mole fraction) (in ethanol, 328.15 K): 2.55e-05
- solubility (mole fraction) (in ethanol, 333.15 K): 3.33e-05
- solubility (mole fraction) (in isobutanol, 283.15 K): 1.2e-05
- solubility (mole fraction) (in isobutanol, 288.15 K): 1.62e-05
- solubility (mole fraction) (in isobutanol, 293.15 K): 2.13e-05
- solubility (mole fraction) (in isobutanol, 298.15 K): 2.73e-05
- solubility (mole fraction) (in isobutanol, 303.15 K): 3.55e-05
- solubility (mole fraction) (in isobutanol, 308.15 K): 4.61e-05
- solubility (mole fraction) (in isobutanol, 313.15 K): 5.88e-05
- solubility (mole fraction) (in isobutanol, 318.15 K): 7.44e-05
- solubility (mole fraction) (in isobutanol, 323.15 K): 9.39e-05
- solubility (mole fraction) (in isobutanol, 328.15 K): 0.000116
- solubility (mole fraction) (in isobutanol, 333.15 K): 0.000135
- solubility (mole fraction) (in isopropanol, 283.15 K): 6.58e-06
- solubility (mole fraction) (in isopropanol, 288.15 K): 7.97e-06
- solubility (mole fraction) (in isopropanol, 293.15 K): 9.58e-06
- solubility (mole fraction) (in isopropanol, 298.15 K): 1.14e-05
- solubility (mole fraction) (in isopropanol, 303.15 K): 1.34e-05
- solubility (mole fraction) (in isopropanol, 308.15 K): 1.63e-05
- solubility (mole fraction) (in isopropanol, 313.15 K): 1.93e-05
- solubility (mole fraction) (in isopropanol, 318.15 K): 2.22e-05
- solubility (mole fraction) (in isopropanol, 323.15 K): 2.65e-05
- solubility (mole fraction) (in isopropanol, 328.15 K): 3.12e-05
- solubility (mole fraction) (in isopropanol, 333.15 K): 3.56e-05
- solubility (mole fraction) (in methanol, 283.15 K): 7.08e-07
- solubility (mole fraction) (in methanol, 288.15 K): 1.05e-06
- solubility (mole fraction) (in methanol, 293.15 K): 1.57e-06
- solubility (mole fraction) (in methanol, 298.15 K): 2.25e-06
- solubility (mole fraction) (in methanol, 303.15 K): 3.15e-06
- solubility (mole fraction) (in methanol, 308.15 K): 4.41e-06
- solubility (mole fraction) (in methanol, 313.15 K): 6.31e-06
- solubility (mole fraction) (in methanol, 318.15 K): 8.49e-06
- solubility (mole fraction) (in methanol, 323.15 K): 1.17e-05
- solubility (mole fraction) (in methanol, 328.15 K): 1.59e-05
- solubility (mole fraction) (in methanol, 333.15 K): 2.14e-05
- solubility (mole fraction) (in n-butanol, 283.15 K): 1.93e-05
- solubility (mole fraction) (in n-butanol, 288.15 K): 2.58e-05
- solubility (mole fraction) (in n-butanol, 293.15 K): 3.46e-05
- solubility (mole fraction) (in n-butanol, 298.15 K): 4.36e-05
- solubility (mole fraction) (in n-butanol, 303.15 K): 5.64e-05
- solubility (mole fraction) (in n-butanol, 308.15 K): 7.1e-05
- solubility (mole fraction) (in n-butanol, 313.15 K): 8.77e-05
- solubility (mole fraction) (in n-butanol, 318.15 K): 0.000111
- solubility (mole fraction) (in n-butanol, 323.15 K): 0.000141
- solubility (mole fraction) (in n-butanol, 328.15 K): 0.000173
- solubility (mole fraction) (in n-butanol, 333.15 K): 0.000218
- solubility (mole fraction) (in n-propanol, 283.15 K): 7.7e-06
- solubility (mole fraction) (in n-propanol, 288.15 K): 1e-05
- solubility (mole fraction) (in n-propanol, 293.15 K): 1.32e-05
- solubility (mole fraction) (in n-propanol, 298.15 K): 1.69e-05
- solubility (mole fraction) (in n-propanol, 303.15 K): 2.16e-05
- solubility (mole fraction) (in n-propanol, 308.15 K): 2.64e-05
- solubility (mole fraction) (in n-propanol, 313.15 K): 3.39e-05
- solubility (mole fraction) (in n-propanol, 318.15 K): 4.31e-05
- solubility (mole fraction) (in n-propanol, 323.15 K): 5.53e-05
- solubility (mole fraction) (in n-propanol, 328.15 K): 6.78e-05
- solubility (mole fraction) (in n-propanol, 333.15 K): 8.09e-05
- solubility (mole fraction) (in water, 283.15 K): 1.03e-07
- solubility (mole fraction) (in water, 288.15 K): 1.31e-07
- solubility (mole fraction) (in water, 293.15 K): 1.67e-07
- solubility (mole fraction) (in water, 298.15 K): 2.12e-07
- solubility (mole fraction) (in water, 303.15 K): 2.6e-07
- solubility (mole fraction) (in water, 308.15 K): 3.23e-07
- solubility (mole fraction) (in water, 313.15 K): 4e-07
- solubility (mole fraction) (in water, 318.15 K): 4.96e-07
- solubility (mole fraction) (in water, 323.15 K): 6.07e-07
- solubility (mole fraction) (in water, 328.15 K): 7.33e-07
- solubility (mole fraction) (in water, 333.15 K): 8.81e-07
